Experimental data from US20180148418A1, “AMIDO-SUBSTITUTED CYCLOHEXANE DERIVATIVES” (Bayer Pharma Aktiengesellschaft, priority 2015, published 2018).
pIC50: −log10 of the molar value.

Legend:
[1] = system: HEK293 cells cotransfected with the FOP control vector; experiment: HEK293 FOP assay (control reporter with non-functional TCF elements); assay type: cell-based; conditions: Homo sapiens, 16 hours
In short: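 Compound series from 50 μM down to 15 nM, prediluted in DMSO then 50-fold into CAFTY buffer (pH 7.4, 2 mM Ca2+, 0.01% BSA), tested alongside TOP cells on a Geneticin-selected HEK293 FOP line whose TCF elements are replaced by a random sequence; recombinant human Wnt-3a applied at 2500-5 ng/ml.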

TNKS1 = molecular target: T1, TNKS1 (Homo sapiens, UniProt O95271); experiment: TNKS1 Assay B (auto-parsylation, [3H]-NAD+ SPA); assay type: biochemical; conditions: 6 nM TNKS1, auto-parsylation, over night at room temperature
T1 construct: purchased BPS Bioscience, San Diego, USA 80579 (TNKS1 Histone Ribosylation Assay Kit)
T1 sequence (O95271 1-1327): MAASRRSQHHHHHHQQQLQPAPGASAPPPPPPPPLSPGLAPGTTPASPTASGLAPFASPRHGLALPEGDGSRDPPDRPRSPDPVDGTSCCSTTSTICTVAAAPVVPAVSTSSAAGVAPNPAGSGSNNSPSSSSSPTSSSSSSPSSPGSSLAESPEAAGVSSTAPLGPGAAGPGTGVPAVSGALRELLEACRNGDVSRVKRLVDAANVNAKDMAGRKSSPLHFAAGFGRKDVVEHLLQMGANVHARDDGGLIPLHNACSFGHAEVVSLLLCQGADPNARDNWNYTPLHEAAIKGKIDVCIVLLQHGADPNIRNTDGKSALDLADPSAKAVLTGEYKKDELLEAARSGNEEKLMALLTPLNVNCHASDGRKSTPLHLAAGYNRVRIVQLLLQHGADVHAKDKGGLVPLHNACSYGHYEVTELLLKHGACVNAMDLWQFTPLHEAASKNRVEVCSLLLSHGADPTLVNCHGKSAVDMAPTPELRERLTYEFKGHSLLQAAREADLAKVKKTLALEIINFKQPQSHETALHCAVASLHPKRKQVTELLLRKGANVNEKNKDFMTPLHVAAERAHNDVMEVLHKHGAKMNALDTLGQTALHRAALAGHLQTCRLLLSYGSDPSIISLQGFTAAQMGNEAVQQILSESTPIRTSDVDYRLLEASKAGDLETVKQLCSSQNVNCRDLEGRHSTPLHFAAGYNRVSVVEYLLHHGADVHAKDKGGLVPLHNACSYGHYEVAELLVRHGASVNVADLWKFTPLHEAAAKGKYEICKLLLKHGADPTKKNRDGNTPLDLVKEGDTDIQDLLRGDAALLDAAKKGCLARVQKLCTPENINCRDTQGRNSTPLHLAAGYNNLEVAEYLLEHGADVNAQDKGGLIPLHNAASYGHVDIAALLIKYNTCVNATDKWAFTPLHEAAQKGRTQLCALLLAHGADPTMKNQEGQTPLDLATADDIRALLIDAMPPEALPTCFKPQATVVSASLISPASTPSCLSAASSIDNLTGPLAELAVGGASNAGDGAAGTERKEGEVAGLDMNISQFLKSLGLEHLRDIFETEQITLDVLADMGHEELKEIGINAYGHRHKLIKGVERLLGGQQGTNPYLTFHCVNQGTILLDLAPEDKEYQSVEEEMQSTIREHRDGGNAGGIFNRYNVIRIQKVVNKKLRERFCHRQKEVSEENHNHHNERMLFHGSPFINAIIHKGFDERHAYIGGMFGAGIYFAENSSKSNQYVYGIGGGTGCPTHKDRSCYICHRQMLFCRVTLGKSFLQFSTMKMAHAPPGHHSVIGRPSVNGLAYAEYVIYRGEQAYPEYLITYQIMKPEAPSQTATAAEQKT

Structure (SMILES) | pIC50 (TNKS1) | pIC50 [1]
CC(C)NC(=O)c1nc[nH]c1C(=O)N[C@H]1CC[C@@]2(CCN(c3ccc(F)cc3Cl)C2=O)CC1 [Example 162, N^5-[(trans)-2-(2-chloro-4-fluorophenyl)-1-oxo-2-azaspiro[4.5]dec-8-yl]-N^4-isopropyl-1H-imidazole-4,5-dicarboxamide] | 7.89 | 4.40
COCCNC(=O)c1nc[nH]c1C(=O)N[C@H]1CC[C@@]2(CCN(c3ccc(F)cc3Cl)C2=O)CC1 [Example 163, N^5-[(trans)-2-(2-chloro-4-fluorophenyl)-1-oxo-2-azaspiro[4.5]dec-8-yl]-N^4-(2-methoxyethyl)-1H-imidazole-4,5-dicarboxamide] | 7.89 | ≤ 4.30
O=C(NC1CC1)c1nc[nH]c1C(=O)N[C@H]1CC[C@@]2(CCN(c3ccc(F)cc3Cl)C2=O)CC1 [Example 165, N^5-[(trans)-2-(2-chloro-4-fluorophenyl)-1-oxo-2-azaspiro[4.5]dec-8-yl]-N^4-cyclopropyl-1H-imidazole-4,5-dicarboxamide] | 7.92 | 4.46

These reach a higher pIC50 (TNKS1). Values come first.

pIC50 (TNKS1) | Structure (SMILES) | pIC50 [1]
8.13 | O=C(N[C@H]1CC[C@@]2(CCN(c3ccc(F)cc3Cl)C2=O)CC1)c1[nH]cnc1C(=O)N1CC(F)C1 [Example 166, N-[(trans)-2-(2-chloro-4-fluorophenyl)-1-oxo-2-azaspiro[4.5]dec-8-yl]-4-[(3-fluoroazetidin-1-yl)carbonyl]-1H-imidazole-5-carboxamide] | ≤ 4.30
8.39 | O=C(NCCN1CCCCC1)c1nc[nH]c1C(=O)N[C@H]1CC[C@@]2(CCN(c3ccc(F)cc3Cl)C2=O)CC1 [Example 161, N^5-[(trans)-2-(2-chloro-4-fluorophenyl)-1-oxo-2-azaspiro[4.5]dec-8-yl]-N^4-[2-(piperidin-1-yl)ethyl]-1H-imidazole-4,5-dicarboxamide] | ≤ 4.30
